Data as given in US20060205640A1, “Papillosin antimicrobial peptide, a gene coding said peptide, a vector, a transformed organism and a compound containing said organism” (priority 2003, published 2006).
No end group written: not given here.

How the values were obtained:
E. coli = type: cell-based; conditions: gram-negative bacteria, 18 hours incubation, Mueller Hinton
Method: (§1) Complementary tests were carried out in order to determine the spectrum of activity of papillosin. The minimal bactericidal concentration (MBC) for each bacterial strain tested is determined as follows: The peptide is placed in a solution containing 0.01% acetic acid and 0.2% bovine serum albumin (BSA), then, serial dilutions of 2 in [sic—and?] 2 are realized in the same 0.01% solution of acetic acid and 0.2% BSA. 10 μl of each dilution are incubated in sterile 96-well plates (Becton Dickinson, USA, ref: 18572) in the presence of 100 μl of a bacterial suspension brought to an optical density of 0.001 at 600 nm in the Mueller Hinton environment (MHB, SIGMA, ref: M-9677).
(§2) The bacterial growth is monitored after 18 hours of incubation under agitation. The MBC is determined by spreading out the content of the first three wells in which no bacterial growth was observed; this spreading out was carried out on Petri dishes on which an agar was poured prepared from the Mueller Hinton environment. These dishes were then incubated 18 hours. The MBC corresponds to the lowest concentration of peptide for which no bacterial colony was observed on the incubated dishes.

S. aureus = type: cell-based; conditions: gram-positive bacteria, 18 hours incubation, Mueller Hinton
Method: as §1, §2

Sequence: GFWKKVGSAAWGGVKAAAKGAAVGGLNALAKHIQ [papillosin]
- MBC (E. coli): 0.25 to 0.5 µM
- MBC (S. aureus): 0.5 to 1 µM
